Holding throughout (format): functional
For assay [1], the species on record is Cavia porcellus. Put plainly: Compound was tested in vitro for inhibiting electrically stimulated muscle contractions in guinea pig ileum (GPI).
The species entered for assay [2] is Mus musculus. Put plainly: Compound was tested in vitro for inhibiting electrically stimulated muscle contractions in mouse vas deferens (MVD). The note with it: Muscle tissue.
Assay [3] is filed under the species Mus musculus. The assay can be described thus: Compound was tested for relative potency with respect to the compound Enkephalinamide in MVD assay.
Assay [4] is filed under the species Cavia porcellus. Put plainly: Compound was tested for relative potency with respect to the compound Enkephalinamide in GPI assay.

Molecules are shown by their SMILES. Starred links: 1 amine or outer side, 2 acyl side, 3 side chain; linkers in the order of their positions; H or OH if unused. Non-standard residues stand in square brackets, D forms with d. Residues, ends and D or L forms follow the SMILES beside them. *: point of attachment. X1 = NC(=O)[C@@H]1O[C@@H](N*)[C@@H](O)[C@@H](O)[C@@H]1O; X3 = O=C(O)[C@@H]1O[C@@H](N*)[C@@H](O)[C@@H](O)[C@@H]1O; X2 = O=C(O)C1OC(NC(=O)C2OC(N*)C(O)C(O)C2O)C(O)C(O)C1O; hMet = CSCCC[C@H](N)C(=O)O; CO = O=C([*:1])[*:2]

Regarding `CC(C)C[C@H](NC(=O)N[C@@H]1O[C@@H](C(=O)O)[C@@H](O)[C@H](O)[C@@H]1O)C(=O)N[C@@H](Cc1ccccc1)C(=O)NCC(=O)NCC(=O)N[C@@H](Cc1ccc(O)cc1)C(=O)O` ({X3-CO}-LFGGY-OH), the IC50 came to 200 nM in the assay listed under Cavia porcellus [1] and 8 nM in the assay filed under Mus musculus [2]. The Relative potency stood at 35.39 in the assay filed under Mus musculus [3] and 2.74 in the assay listed under Cavia porcellus [4].
Taken in the same sequence, the figures for `CC(C)C[C@H](NC(=O)[C@H](Cc1ccccc1)NC(=O)CNC(=O)CNC(=O)[C@@H](N)Cc1ccc(O)cc1)C(N)=O` (single isomer, unassigned) [[LEU5]ENKEPHALIN] were 540 nM, 280 nM, 1 and 1.
Taken in the same sequence, the figures for `CC(C)C[C@H](NC(=O)NC1OC(C(=O)NC2OC(C(=O)O)C(O)C(O)C2O)C(O)C(O)C1O)C(=O)N[C@@H](Cc1ccccc1)C(=O)NCC(=O)NCC(=O)N[C@@H](Cc1ccc(O)cc1)C(=O)O` (stereo not given in full) ({X2-CO}-LFGGY-OH) were 1040 nM, 550 nM, 2.56 and 0.52.
As for `CC(C)C[C@H](NC(=O)N[C@@H]1O[C@@H](C(N)=O)[C@@H](O)[C@H](O)[C@@H]1O)C(=O)N[C@@H](Cc1ccccc1)C(=O)NCC(=O)NCC(=O)N[C@@H](Cc1ccc(O)cc1)C(=O)O` ({X1-CO}-LFGGY-OH), the IC50 is 3860 nM in the assay listed under Cavia porcellus [1] and 110 nM in the assay listed under Mus musculus [2]. Moreover, the Relative potency in the assay listed under Mus musculus [3] was found to be 0.51; in the assay listed under Cavia porcellus [4] it was 0.14.
As for `CSCCC[C@H](NC(=O)N[C@@H]1O[C@@H](C(=O)O)[C@@H](O)[C@H](O)[C@@H]1O)C(=O)N[C@@H](Cc1ccccc1)C(=O)NCC(=O)NCC(=O)N[C@@H](Cc1ccc(O)cc1)C(=O)O` ({X3-CO}-[hMet]FGGY-OH), the IC50 in the assay filed under Cavia porcellus [1] came to 110 nM; in the assay listed under Mus musculus [2], 70 nM. The results for the Relative potency in the assay listed under Mus musculus [3] and in the assay filed under Cavia porcellus [4] were 3.8 and 4.54, respectively.

Broadly, the IC50 is the point on the concentration scale where inhibition reaches its midpoint.

Source of the values: ChEMBL document CHEMBL1130520, “Solid phase synthesis of C-terminal carbohydrate modified enkephalins” (Bioorg Med Chem Lett, 1997).
